Values of other authors in patent US20200317616A1, “Crystalline Form of Betrixaban Maleate” (Apotex Inc., priority 2019, published 2020).
Counter-ions that a name gives are not always drawn.

Legend:
[1] = anhydrous form, CDER review NDA 208383
[2] = anhydrous form, CDER review NDA 208383; remark: listed apart in the source
[3] = labelling of BEVYXXA

SMILES: COc1ccc(NC(=O)c2ccc(C(=N)N(C)C)cc2)c(C(=O)Nc2ccc(Cl)cn2)c1 [Betrixaban maleate]
- solubility [1]: high
- permeability [2]: low

SMILES: COc1ccc(NC(=O)c2ccc(C(=N)N(C)C)cc2)c(C(=O)Nc2ccc(Cl)cn2)c1 [Betrixaban, N-(5-chloropyridin-2-yl)-2-[4-(N,N-dimethylcarbamimidoyl)-benzoylamino]-5-methoxybenzamide]
- oral bioavailability [3]: 34%
